Assay results: patent US8697123B2, “Medication on the basis of 3,3′-diindolylmethane (DIM) with high-bioavailability and its use in treatment of human hyperplastic and inflammatory diseases” (Zakrytoye akstionernoye obschestvo “VELES FARMA”, priority 2010, dated 2014)

What was measured:
[1] = set-up: species or system rats; conditions: rat, in vivo, 200 mg/kg
Description: Concentration of 3,3′-diindolylmethane (μg/ml) in the Blood Plasma of Experimental Animals Given 200.0 mg/kg of 3,3′-diindolylmethane Substance Intrastomachically.
The results of measurements of 3,3′-diindolylmethane substance concentration in the blood plasma of rats given the substance intrastomachically are shown in Table 1.
3,3′-diindolylmethane Concentration (μg/ml) in the Blood Plasma of Experimental Animals Given […] of High-Bioavailability 3,3′-diindolylmethane Intrastomachically.
The results of measurements of 3,3′-diindolylmethane substance concentration in the blood plasma of rats given the substance intrastomachically are shown in Table 2.

[2] = Clinical efficiency of DIM-HB and crystalline DIM in equal doses; assay type: in vivo, human
From the text: All classical studies compared the efficiencies of DIM-HB and crystalline DIM in equal doses.
These differences are probably attributed to effective therapeutic DIM concentrations reached in the peripheral blood and target tissues in response to DIM-HB treatment.

[3] = DIM concentration in patients' blood plasma; assay type: in vivo, human; conditions: dose 100 mg
From the text: Study of DIM Concentration in Patients' Blood Plasma These differences are probably attributed to effective therapeutic DIM concentrations reached in the peripheral blood and target tissues in response to DIM-HB treatment.

maximum concentration in the system blood flow [1]: 0.13 to 0.17 µg/mL
minimum concentration 12 hours after administration [1]: less than 0.03 μg/ml
time at which the maximum concentration was observed [1]: about 1 hour
DIM concentration in the plasma [3]: 20 to 30 ng/mL
SMILES: c1ccc2c(Cc3c[nH]c4ccccc34)c[nH]c2c1 [Crystalline DIM, 3,3′-diindolylmethane]
dynamics in all study groups of patients in response to treatment [2]: no dynamics at all
